Measurements taken from PubChem BioAssay (NCI).
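48-hour exposure; five concentrations; linearly interpolated endpoints. GI50 is the concentration that inhibits growth by half. TGI denotes the concentration required for complete inhibition of growth.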

How the values were obtained:
Assay in all cases: NCI tumour cell line growth inhibition, 48 h
CAKI-1 renal = tested on: CAKI-1 renal
DU-145 prostate = tested on: DU-145 prostate
HOP-92 NSCLC = tested on: HOP-92 NSCLC
HS 578T breast = tested on: HS 578T breast
OVCAR-4 ovarian = tested on: OVCAR-4 ovarian
SK-MEL-5 melanoma = tested on: SK-MEL-5 melanoma
UACC-257 melanoma = tested on: UACC-257 melanoma
786-0 renal = tested on: 786-0 renal
A498 renal = tested on: A498 renal
A549 NSCLC = tested on: A549 NSCLC
ACHN renal = tested on: ACHN renal
BT-549 breast = tested on: BT-549 breast
CCRF-CEM leukemia = tested on: CCRF-CEM leukemia
COLO 205 colon = tested on: COLO 205 colon
EKVX NSCLC = tested on: EKVX NSCLC
HCC-2998 colon = tested on: HCC-2998 colon
HCT-116 colon = tested on: HCT-116 colon
HCT-15 colon = tested on: HCT-15 colon
HOP-62 NSCLC = tested on: HOP-62 NSCLC
HT29 colon = tested on: HT29 colon
IGROV1 ovarian = tested on: IGROV1 ovarian
K-562 leukemia = tested on: K-562 leukemia
KM12 colon = tested on: KM12 colon
LOX IMVI melanoma = tested on: LOX IMVI melanoma
M14 melanoma = tested on: M14 melanoma
MALME-3M melanoma = tested on: MALME-3M melanoma
MCF7 breast = tested on: MCF7 breast
MDA-MB-231 breast = tested on: MDA-MB-231 breast
MDA-MB-435 = tested on: MDA-MB-435
MOLT-4 leukemia = tested on: MOLT-4 leukemia
NCI-H226 lung = tested on: NCI-H226 lung
NCI-H23 lung = tested on: NCI-H23 lung
NCI-H460 lung = tested on: NCI-H460 lung
NCI-H522 lung = tested on: NCI-H522 lung
OVCAR-3 ovarian = tested on: OVCAR-3 ovarian
OVCAR-5 ovarian = tested on: OVCAR-5 ovarian
OVCAR-8 ovarian = tested on: OVCAR-8 ovarian
PC-3 prostate = tested on: PC-3 prostate
RPMI-8226 leukemia = tested on: RPMI-8226 leukemia
RXF 393 renal = tested on: RXF 393 renal
SF-268 CNS = tested on: SF-268 CNS
SF-295 CNS = tested on: SF-295 CNS
SF-539 CNS = tested on: SF-539 CNS
SK-MEL-2 melanoma = tested on: SK-MEL-2 melanoma
SK-MEL-28 melanoma = tested on: SK-MEL-28 melanoma
SK-OV-3 ovarian = tested on: SK-OV-3 ovarian
SN12C renal = tested on: SN12C renal
SNB-19 CNS = tested on: SNB-19 CNS
SNB-75 CNS = tested on: SNB-75 CNS
SW-620 colon = tested on: SW-620 colon
T-47D breast = tested on: T-47D breast
TK-10 renal = tested on: TK-10 renal
U251 CNS = tested on: U251 CNS
UACC-62 melanoma = tested on: UACC-62 melanoma
UO-31 renal = tested on: UO-31 renal

`CC(C)(C)c1cc(C(=O)Nc2cc3ccccc3cc2C(=O)NCCN)cc(C(C)(C)C)c1` showed a GI50 (CAKI-1 renal) of 1.13 µM, a TGI (CAKI-1 renal) of 2.44 µM and a GI50 (DU-145 prostate) of 0.374 µM. For the same compound, the TGI (DU-145 prostate) was 1.29 µM, the GI50 (HOP-92 NSCLC) was 0.146 µM and the TGI (HOP-92 NSCLC) was 0.396 µM. The GI50 (HS 578T breast) was 1.65 µM, the TGI (HS 578T breast) was 4.57 µM and the GI50 (OVCAR-4 ovarian) was 1.24 µM. It also gave a TGI (OVCAR-4 ovarian) of 2.7 µM, a GI50 (SK-MEL-5 melanoma) of 1.65 µM and a TGI (SK-MEL-5 melanoma) of 3.17 µM. It also gave a GI50 (UACC-257 melanoma) of 2.35 µM and a TGI (UACC-257 melanoma) of 4.98 µM.
Work on `CC1SC2(CCCCC2)N(NC(=O)c2[nH]c3ccc(F)cc3c2-c2ccccc2)C1=O` (centres undefined) yielded a GI50 (786-0 renal) of 28.4 µM, a TGI (786-0 renal) of 89.2 µM and a GI50 (A498 renal) greater than 100 µM. For the same compound, the TGI (A498 renal) was greater than 100 µM, the GI50 (A549 NSCLC) was 72.3 µM and the TGI (A549 NSCLC) was greater than 100 µM. It also gave a GI50 (ACHN renal) greater than 100 µM, a TGI (ACHN renal) greater than 100 µM and a GI50 (BT-549 breast) greater than 100 µM. For the same compound, the TGI (BT-549 breast) was greater than 100 µM, the GI50 (CAKI-1 renal) was greater than 100 µM and the TGI (CAKI-1 renal) was greater than 100 µM. The GI50 (CCRF-CEM leukemia) was greater than 100 µM, the TGI (CCRF-CEM leukemia) was greater than 100 µM and the GI50 (COLO 205 colon) was greater than 100 µM. For the same compound, the TGI (COLO 205 colon) was greater than 100 µM, the GI50 (DU-145 prostate) was greater than 100 µM and the TGI (DU-145 prostate) was greater than 100 µM. It also gave a GI50 (EKVX NSCLC) greater than 100 µM, a TGI (EKVX NSCLC) greater than 100 µM and a GI50 (HCC-2998 colon) greater than 100 µM. The TGI (HCC-2998 colon) was greater than 100 µM, the GI50 (HCT-116 colon) was 64.9 µM and the TGI (HCT-116 colon) was greater than 100 µM. It also gave a GI50 (HCT-15 colon) greater than 100 µM, a TGI (HCT-15 colon) greater than 100 µM and a GI50 (HOP-62 NSCLC) of 19.7 µM. For the same compound, the TGI (HOP-62 NSCLC) was 60.9 µM, the GI50 (HOP-92 NSCLC) was 16.9 µM and the TGI (HOP-92 NSCLC) was 59.9 µM. For the same compound, the GI50 (HS 578T breast) was 66.8 µM, the TGI (HS 578T breast) was greater than 100 µM and the GI50 (HT29 colon) was greater than 100 µM. It also gave a TGI (HT29 colon) greater than 100 µM, a GI50 (IGROV1 ovarian) of 16 µM and a TGI (IGROV1 ovarian) of 97.3 µM. The GI50 (K-562 leukemia) was 35.4 µM, the TGI (K-562 leukemia) was greater than 100 µM and the GI50 (KM12 colon) was 63.7 µM. For the same compound, the TGI (KM12 colon) was greater than 100 µM, the GI50 (LOX IMVI melanoma) was greater than 100 µM and the TGI (LOX IMVI melanoma) was greater than 100 µM. For the same compound, the GI50 (M14 melanoma) was greater than 100 µM, the TGI (M14 melanoma) was greater than 100 µM and the GI50 (MALME-3M melanoma) was 26.1 µM. It also gave a TGI (MALME-3M melanoma) greater than 100 µM, a GI50 (MCF7 breast) greater than 100 µM and a TGI (MCF7 breast) greater than 100 µM. The GI50 (MDA-MB-231 breast) was 31 µM, the TGI (MDA-MB-231 breast) was greater than 100 µM and the GI50 (MDA-MB-435) was greater than 100 µM. For the same compound, the TGI (MDA-MB-435) was greater than 100 µM, the GI50 (MOLT-4 leukemia) was greater than 100 µM and the TGI (MOLT-4 leukemia) was greater than 100 µM. It also gave a GI50 (NCI-H226 lung) greater than 100 µM, a TGI (NCI-H226 lung) greater than 100 µM and a GI50 (NCI-H23 lung) greater than 100 µM. It also gave a TGI (NCI-H23 lung) greater than 100 µM, a GI50 (NCI-H460 lung) greater than 100 µM and a TGI (NCI-H460 lung) greater than 100 µM. It also gave a GI50 (NCI-H522 lung) of 54.4 µM, a TGI (NCI-H522 lung) greater than 100 µM and a GI50 (OVCAR-3 ovarian) of 25.2 µM. For the same compound, the TGI (OVCAR-3 ovarian) was greater than 100 µM, the GI50 (OVCAR-4 ovarian) was 41.6 µM and the TGI (OVCAR-4 ovarian) was greater than 100 µM. For the same compound, the GI50 (OVCAR-5 ovarian) was greater than 100 µM, the TGI (OVCAR-5 ovarian) was greater than 100 µM and the GI50 (OVCAR-8 ovarian) was 23.1 µM. The TGI (OVCAR-8 ovarian) was 63.5 µM, the GI50 (PC-3 prostate) was 41.2 µM and the TGI (PC-3 prostate) was greater than 100 µM. The GI50 (RPMI-8226 leukemia) was 41.2 µM, the TGI (RPMI-8226 leukemia) was greater than 100 µM and the GI50 (RXF 393 renal) was 28.3 µM. For the same compound, the TGI (RXF 393 renal) was greater than 100 µM, the GI50 (SF-268 CNS) was 78.7 µM and the TGI (SF-268 CNS) was greater than 100 µM. For the same compound, the GI50 (SF-295 CNS) was 35.8 µM, the TGI (SF-295 CNS) was greater than 100 µM and the GI50 (SF-539 CNS) was greater than 100 µM. For the same compound, the TGI (SF-539 CNS) was greater than 100 µM, the GI50 (SK-MEL-2 melanoma) was 76.2 µM and the TGI (SK-MEL-2 melanoma) was greater than 100 µM. For the same compound, the GI50 (SK-MEL-28 melanoma) was greater than 100 µM, the TGI (SK-MEL-28 melanoma) was greater than 100 µM and the GI50 (SK-MEL-5 melanoma) was greater than 100 µM. The TGI (SK-MEL-5 melanoma) was greater than 100 µM, the GI50 (SK-OV-3 ovarian) was greater than 100 µM and the TGI (SK-OV-3 ovarian) was greater than 100 µM. For the same compound, the GI50 (SN12C renal) was 37.1 µM, the TGI (SN12C renal) was greater than 100 µM and the GI50 (SNB-19 CNS) was 55.6 µM. For the same compound, the TGI (SNB-19 CNS) was greater than 100 µM, the GI50 (SNB-75 CNS) was 27.2 µM and the TGI (SNB-75 CNS) was 62 µM. It also gave a GI50 (SW-620 colon) greater than 100 µM, a TGI (SW-620 colon) greater than 100 µM and a GI50 (T-47D breast) greater than 100 µM. It also gave a TGI (T-47D breast) greater than 100 µM, a GI50 (TK-10 renal) of 35.3 µM and a TGI (TK-10 renal) greater than 100 µM. It also gave a GI50 (U251 CNS) of 48.5 µM, a TGI (U251 CNS) greater than 100 µM and a GI50 (UACC-257 melanoma) of 90.9 µM. It also gave a TGI (UACC-257 melanoma) greater than 100 µM, a GI50 (UACC-62 melanoma) of 21.2 µM and a TGI (UACC-62 melanoma) greater than 100 µM. The GI50 (UO-31 renal) was greater than 100 µM and the TGI (UO-31 renal) was greater than 100 µM.
